Laboratory results reported in patent US10463669B2, “Composition for treating or preventing liver cancer” (Seoul National University R&DB Foundation, priority 2016, dated 2019).

Experiments:
THLE-3 cells = assay: Cell proliferation / cell viability, MTS assay; format: cell-based, human
Experimental: THLE-3 cell line (immortalized human liver endothelial cell line produced by infection with SV40 large T antigen) was obtained from ATCC (American Type Culture Collection). Cell line authentication by KCLB and ATCC was carried out by using DNA fingerprinting as a short tandem repeat analysis. All cell lines were tested for mycoplasma contamination. […] As it has been recommended by the ATCC manual, THLE-3 cells were cultured in BEGM (Lonza) medium complemented with 10% fetal bovine serum in a humidified 5% CO2 incubator at 37° C.

[1] = test system: telomere length in HCC cell lines (Huh7 and Hep3B); assay: Telomere length (Southern blot, immunoFISH, Flow FISH, quantitative PCR); format: cell-based, human
Experimental: Volume of the hybridization buffer was adjusted to 100 μl per 10^5 cells. Next, each sample was cultured for 10 minutes in a water bath at 85° C. […] Total 15,000 to 20,000 nuclei were analyzed for the each separate culture. Telomere fluorescence intensity of the all nuclei at […] phase of the cell cycle was measured by using BD FACS Calibur flow cytometer (Becton Dickinson, Franklin Lakes, N.J., USA) in which CELLQUEST software is used. The established ImmunoFISH protocol (Plentz R R, et al., Hepatology. 2007; 45: 968-76) was used with slight modifications. The paraffin-embedded section was subjected to de-paraffinization using xylene, and then rehydrated using ethanol gradient. Antigen retrieval was carried out by boiling in 100 mmol/L sodium citrate (pH 6.0) for 10 minutes in a microwave. After permeation of proteinase K (15 μg/mL in PBS [pH 7.4]) for 20 minutes at 37° C., 8-oxo-dG-specific antibody (1:100, Abcam, Cambridge, Mass., USA; ab62623) was subjected to 1% BSA dilution in PBS 0.1% Triton X-100 and cultured overnight at room temperature. After washing, the slide was treated with Alexa 647 secondary antibody for 1 hour. […] After denaturation for 6 minutes at 90° C., the sample was hybridized for 2 hours at dark place. […] After washing, the slide was rinsed with PBS containing DAPI, and then sealed with a DAPI sealing agent (mounting medium) (Vector Laboratories, Burlingame, Calif., USA). Simultaneously, the inventors of the present invention carried out centromere staining as an internal control for telomere staining and 8-oxo-dG staining. […] For quantification of the telomere fluorescence intensity, centromere fluorescence intensity, and 8-oxo-dG fluorescence intensity, the same exposure time was employed. The telomere fluorescence level and 8-oxo-dG fluorescence level of tumor tissues were calculated by division of the fluorescence level in non-tumor tissues corresponding to 5 random fields. The image analysis was carried out by using Image-Pro plus 6.0 software (Media Cybernetics, Inc., Rockville, Md., USA). Telomere length was determined by using the non-radioactive chemical fluorescence TeloTAGGG telomere length assay (Roche; Cat. No. 12 209 136 001) according to the manual. Genomic DNA was separated from HCC cells using GeneJET Genomic DNA Purification Kit (Thermo Scientific; #K0721), and then 4 μg of the genomic DNA was digested for 16 hours at 37° C. with 20 units of […] digested DNA was subjected to 0.8% agarose gel electrophoresis, and then transferred to a positively charged nylon membrane using capillary transfer. The blotted DNA was hybridized for 16 hours at 42° C. with a digoxigenin (DIG)-labeled probe that is specific to the telomere repeat. After that, it was cultured for 30 minutes at room temperature with DIG-specific antibody conjugated to an alkaline phosphatase Based on quantitative PCR analysis using the genomic DNA extracted from cells, relative telomere repeat copy number (T) and single copy number (S) were determined, and the calculation was made like previous method in which T/S ratio is continuously modified (Cawthon R M. Telomere length measurement by a novel monochrome multiplex quantitative PCR method. Nucleic Acids Res. 2009; 37: e21).

[2] = test system: PI3K isotype p110δ expression in HCC cells; details: HCC cells after treatment with H2O2
Experimental: Medium was exchanged every day, and the aforementioned cells were cultured for 4 days in 300 μmol/L hydrogen peroxide (H2O2) (Sigma Aldrich; H1009). In several experiments, the cells were treated for 1 hour with 5 mmol/L N-acetylcysteine (NAC) (Sigma Aldrich; A7250), 25 μmol/L idelalisib (LC Laboratoties, Woburn, Mass., USA; I-7447), 25 μmol/L perifosine (LC Laboratoties, Woburn, Mass., USA; P-6522), or 30 μmol/L GSK3β inhibitor (GSK3β inhibitor XI) (Santa Cruz; sc-204770) (31) before adding H2O2. Furthermore, sterilized distilled water (pH 7.0) was used as a negative control (i.e., mock treatment).
PCR was carried out by using TOPrealm qPCR 2×PreMIX (SYBR Green with high ROX) (Enzynomics, Daejeon, Korea; RT501M) and ABI Prism 7300 thermal cycler (Applied Biosystems, Foster City, Calif., USA). […] To examine the primer specificity, a dissociation step was additionally included.

Hep3B cells = assay: Cell proliferation / cell viability, MTS assay; format: cell-based; details: Homo sapiens, treated for 96 hours
Experimental: (§1) HCC cell lines (Huh7 and Hep3B) were obtained from Korean Cell Line Bank (KCLB, Seoul, Korea). THLE-3 cell line (immortalized human liver […] cell line produced by infection with SV40 large T antigen) was obtained from ATCC (American Type Culture Collection). Cell line authentication by KCLB and ATCC was carried out by using DNA fingerprinting as a short tandem repeat analysis. All cell lines were tested for mycoplasma contamination. HCC cells were cultured in DMEM (Welgene, Gyeongsan-si, Korea) medium complemented with 10% fetal bovine serum (GenDepot, Barker, Tex., USA) in a humidified 5% CO2 incubator at 37° C. As it has been recommended by the ATCC manual, THLE-3 cells were cultured in BEGM (Lonza) medium complemented with 10% fetal bovine serum in a humidified 5% CO2 incubator at 37° C.
(§2) As it has been described before (10), the cell viability was measured by using Cell Titer 96 MTS (Promega). Cells were sewn in an amount of 500 to 1000 cells per well, and then treated for 96 hours at a pharmaceutical concentration as described in each graph. Each analysis was repeated 3 times at least. After plotting the data, IC50 values were obtained by using GraphPad software. By using Flexstation 3 multimode plate reader (Molecular Devices), optical density showing formazan production was measured at 490 nm. […]

Huh7 cells = assay: Cell proliferation / cell viability, MTS assay; format: cell-based; details: Homo sapiens, Huh-7, treated for 96 hours
Experimental: as §1, §2

IC50 (Hep3B cells) [µM]	IC50 (Huh7 cells) [µM]	Structure (SMILES)	cells that did not survive (THLE-3 cells; THLE-3 cells exposed to 150 μmol/L H2O2) [%]	telomere length increased by ([1]; HCC cells treated with 300 μmol/L H2O2, compared to control HCC cells not exposed to H2O2)	p110δ expression (only isotype among p110α, p110β, p110δ, p110γ) [2]	IC50 (THLE-3 cells; Homo sapiens, THLE3, MTS assay, treated for 96 hours) [µM]	telomere length reduced by ([1]; 300 μmol/L H2O2-treated HCC cells plus idelalisib, compared to HCC cells treated with H2O2 only)	ROS-mediated increase in telomere length ([1]; H2O2-treated cells)	telomere length ([1]; HCC cells, no H2O2)
–	–	OO [H2O2, hydrogen peroxide]	85	25%-30%	increased	–	–	–	–
< 30	< 30	CC[C@H](Nc1ncnc2nc[nH]c12)c1nc2cccc(F)c2c(=O)n1-c1ccccc1 [idelalisib, 5-fluoro-3-phenyl-2-[(1S)-1-(7H-purin-6-ylamino)propyl]-4(3H)-quinazolinone]	–	–	–	> 200	40-45%	almost completely inhibited	reduced
